From patent US11292778B2, “Heterocyclyl polymethine IR chromophores” (The Regents of the University of California, priority 2017, dated 2022) come the findings set out here.

Where “and” joins values, the source holds several entries; their conditions need not be identical. Equal entries are not always repeated. Entries after “also recorded” stand apart in the source; their conditions may differ.

Common to all, as to assay type: physicochemical
Data set [1] is described as follows: Emission spectra of the dyes in DCM. To be noted: dichloromethane; for emission (DCM) λmax: dyes 1, 3-6 and reference dyes; for Emission (CH2Cl2): Example 4 dyes, excitation 806-900 nm per dye. The text has this:
(§1) The absorbance spectra in FIG. 2 and FIG. 5 were obtained in DCM on a JASCO V-770 UV-Visible/[…] spectrophotometer with a 2000 nm/min or 4000 nm/min scan rate. Plotted are the baseline corrected and normalized data. The emission spectra in FIG. 2 were taken in DCM on either a Horiba Instruments PTI QuantaMaster Series fluorometer (6), a Fluoromax-3 spectrofluorometer (1, 3-5), or home-built InGaAs array detector (Princeton Instruments). For 6 the following parameters were used: ex. 610 nm, emission collected from 620-900 nm, slits 5 nm, step size 1 nm, integration time 1 s. Plotted is the DCM corrected, baseline corrected, normalized data. For 1, and 3-5, the following parameters were used: slits 5 nm, step size 1 nm, integration time, 0.25 s. Excitation values and emission collection were as follows: 1 (ex. 460, collection 470-800 nm), 5 (ex. 675 nm, collection 685-950 nm), 4 (ex. 840 nm, emission 850-1100 nm), 3 (ex. 730 nm, emission 950-1400). Plotted are the baseline corrected, normalized data. The emission spectra in FIG. 5 were taken in dichloromethane on a Horiba Instruments QuantaMaster Series fluorometer with excitation slits: 15 nm, emission slits: 30 nm, step size: 1 nm, integration time: 0.1 s and excitation wavelengths as indicated.

The nature of data set [2]: Absolute fluorescence quantum yield using an integrating sphere. To be noted: for ΦF (fluorescence quantum yield) / QE, εΦF (quantum efficiency): dichloromethane; for ΦF (fluorescence quantum yield): absolute value. As to the method:
Polymethine dyes disclosed herein are characterized with respect to their photophysics including absorption, emission, extinction coefficient, quantum yields, and fluorescence lifetime. All quantum yields values obtained are absolute quantum yields values measured using an integrating sphere. Photostabilities are evaluated by sample irradiation with high powered LEDs. Additionally, solvatochromism, solvent compatibility, and stability are assessed.

Data set [3] is described as follows: Absorbance spectra of the dyes in DCM (UV-Visible/NIR spectrophotometer). To be noted: dichloromethane; for absorption (DCM) ε: at absorption λmax; for absorption (DCM) λmax: in example paragraphs the longest-wavelength absorbance peak.
Text: as §1

A short description of data set [4]: Photobleaching under continuous-wave irradiation at 532 nm. To be noted: for relative rate, krel (photobleaching): 532 nm irradiation; for relative rate, krel (photobleaching) / photostability (in words) / raw rate, k (photobleaching) / ε at 532 nm: dichloromethane; for raw rate, k (photobleaching): continuous-wave irradiation 532 nm, 0.53 fluence. As to the method:
Photostabilities of the Flay series were measured under continuous-wave irradiation (532 nm, 0.53 fluence).

On to `ClC1=C(/C=C/c2cc(-c3ccccc3)[s+]c(-c3ccccc3)c2)CCC/C1=C/C=C1C=C(c2ccccc2)SC(c2ccccc2)=C1.F[B-](F)(F)F` [IR-1061, reference compound], for which, in data set [1], the “emission (DCM) λmax” value turned out to be 1081 nm. Besides, in data set [2], the “ΦF (fluorescence quantum yield)” value came out at 0.32±0.04%.
For the compound `CN1C(=CC=CC=CC=CC2=[N+](C)c3ccccc3C2(C)C)C(C)(C)c2ccccc21.[I-]` [HITCI, 1,1′,3,3,3′,3′-hexamethylindotricarbocyanine iodide, reference compound], the “ΦF relative to Flav3” value in data set [2] is on record as around 10 fold.
For the compound `C1=C(c2ccccc2)Oc2c(cc3c4c2CCCN4CCC3)/C1=C/C=C/C=C/c1cc(-c2ccccc2)[o+]c2c3c4c(cc12)CCCN4CCC3.F[B-](F)(F)F` [11-phenyl-9-((1E,3E,5E)-5-(11-phenyl-2,3,6,7-tetrahydro-1H,5H,9H-pyrano[2,3-f]pyrido[3,2,1-ij]quinolin-9-ylidene)penta-1,3-dien-1-yl)-2,3,6,7-tetrahydro-1H,5H-pyrano[2,3-f]pyrido[3,2,1-ij]quinolin-12-ium tetrafluoroborate], the “Emission (CH2Cl2)” value in data set [1] is reported as 934 nm. Besides, in data set [3], the “absorption (DCM) ε” value is 2.5±0.1×10^5 M^−1cm^−1 and the “absorption (DCM) λmax” value came to 897 nm.
For `CCN(CC)c1ccc2c(c1)OC(c1ccccc1)=C/C2=C\C=C1/CCCC(/C=C/c2cc(-c3ccccc3)[o+]c3cc(N(CC)CC)ccc23)=C1Cl.F[B-](F)(F)F` [4-((E)-2-((E)-2-chloro-3-(2-((E)-7-(diethylamino)-2-phenyl-4H-chromen-4-ylidene)ethylidene)cyclohex-1-en-1-yl)vinyl)-7-(diethylamino)-2-phenylchromenylium tetrafluoroborate] the same measures were 1062 nm, 1.8±0.2×10^5 M^−1cm^−1 and 1034 nm.
As to `ClC1=C(/C=C/c2cc(-c3ccccc3)[o+]c3ccc4ccccc4c23)CCC/C1=C\C=C1/C=C(c2ccccc2)Oc2ccc3ccccc3c21.F[B-](F)(F)F` [1-((E)-2-((E)-2-chloro-3-((E)-2-(3-phenyl-1H-benzo[f]chromen-1-ylidene)ethylidene)cyclohex-1-en-1-yl)vinyl)-3-phenylbenzo[f]chromen-4-ium tetrafluoroborate], the “Emission (CH2Cl2)” value in data set [1] is 1055 nm. For the same compound, the “absorption (DCM) λmax” value in data set [3] came to 1014 nm.
In the case of `CN(C)c1ccc2c(c1)OC(c1ccccc1)=C/C2=C\c1cc(-c2ccccc2)[o+]c2cc(N(C)C)ccc12.O=C([O-])C(F)(F)F` [Dye 6, (E)-7-(dimethylamino)-4-((7-(dimethylamino)-2-phenyl-4H-chromen-4-ylidene)methyl)-2-phenylchromenylium 2,2,2-trifluoroacetate], in data set [1], the “emission (DCM) λmax” value came to 684 nm. In addition, the “QE, εΦF (quantum efficiency)” value in data set [2] stood at 100 M⁻¹ cm⁻¹. Also, in data set [2] (2,2,2-trifluoroacetate), the “ΦF (fluorescence quantum yield)” value was 0.7±0.5% and 0.7%. Also, the “absorption (DCM) λmax” value in data set [3] is recorded as 650 nm. In addition, in data set [4], the “relative rate, krel (photobleaching)” value stood at 4 ± 1; the “raw rate, k (photobleaching)” value is recorded as 0.43 ± 0.01 s^−1 × 10^−3; the “ε at 532 nm” value is 0.23 ± 0.08 M^−1cm^−1 × 10^4. Moreover, the “photostability (in words)” value in data set [4] (532 nm laser, listed as Flav1, 2,2,2-trifluoroacetate) is given as “extremely high photostabilities; also recorded: excellent photostabilities”.
Take `CN(C)c1ccc2c(c1)OC(c1ccccc1)=C/C2=C\C=C1/CCCC(/C=C/c2cc(-c3ccccc3)[o+]c3cc(N(C)C)ccc23)=C1Cl.F[B-](F)(F)F` [4-((E)-2-((E)-2-chloro-3-(2-((E)-7-(dimethylamino)-2-phenyl-4H-chromen-4-ylidene)ethylidene)cyclohex-1-en-1-yl)vinyl)-7-(dimethylamino)-2-phenylchromenylium tetrafluoroborate]: the “Emission (CH2Cl2)” value in data set [1] is on record as 1054 nm. For the same compound, in data set [3], the “absorption (DCM) λmax” value was 1026 nm.
With `ClC1=C(/C=C/c2cc(-c3ccccc3)[o+]c3c2ccc2ccccc23)CCC/C1=C\C=C1/C=C(c2ccccc2)Oc2c1ccc1ccccc21.F[B-](F)(F)F` [4-((E)-2-((E)-2-chloro-3-((E)-2-(2-phenyl-4H-benzochromen-4-ylidene)ethylidene)cyclohex-1-en-1-yl)vinyl)-2-phenylbenzo chromen-1-ium tetrafluoroborate], the “Emission (CH2Cl2)” value in data set [1] came out at 1024 nm. Besides, in data set [3], the “absorption (DCM) λmax” value is recorded as 998 nm.
In the case of `Cc1cc(-c2ccccc2)[o+]c2cc(N(C)C)ccc12` [Dye 1, 7-N,N-dimethylamino-4-methyl-flavylium perchlorate], the “emission (DCM) λmax” value in data set [1] came to 587 nm. Besides, in data set [3], the “absorption (DCM) ε” value turned out to be 17000 M⁻¹ cm⁻¹ and the “absorption (DCM) λmax” value is reported as 510 nm.
With `ClC1=C(/C=C/c2cc(-c3ccccc3)[o+]c3c4c5c(cc23)CCCN5CCC4)CCC/C1=C\C=C1/C=C(c2ccccc2)Oc2c1cc1c3c2CCCN3CCC1.F[B-](F)(F)F` [9-((E)-2-((E)-2-chloro-3-((E)-2-(11-phenyl-2,3,6,7-tetrahydro-1H,5H,9H-pyrano[2,3-f]pyrido[3,2,1-ij]quinolin-9-ylidene)ethylidene)cyclohex-1-en-1-yl)vinyl)-11-phenyl-2,3,6,7-tetrahydro-1H,5H-pyrano[2,3-f]pyrido[3,2,1-ij]quinolin-12-ium tetrafluoroborate], the “Emission (CH2Cl2)” value in data set [1] was 1089 nm. Besides, in data set [3], the “absorption (DCM) ε” value is on record as 2.38±0.07×10^5 M^−1cm^−1 and the “absorption (DCM) λmax” value is listed as 1061 nm.
Regarding `ClC1=C(/C=C/c2cc(-c3ccccc3)[o+]c3cc(N(c4ccccc4)c4ccccc4)ccc23)CCC/C1=C\C=C1/C=C(c2ccccc2)Oc2cc(N(c3ccccc3)c3ccccc3)ccc21.F[B-](F)(F)F` [4-((E)-2-((E)-2-chloro-3-(2-((E)-7-(diphenylamino)-2-phenyl-4H-chromen-4-ylidene)ethylidene)cyclohex-1-en-1-yl)vinyl)-7-(diphenylamino)-2-phenylchromenylium tetrafluoroborate], the “Emission (CH2Cl2)” value in data set [1] is recorded as 1079 nm. Further, the “absorption (DCM) λmax” value in data set [3] amounted to 1047 nm.
Take `ClC1=C(/C=C/c2cc(-c3ccccc3)[o+]c3cc(N4CCC4)ccc23)CCC/C1=C\C=C1/C=C(c2ccccc2)Oc2cc(N3CCC3)ccc21.F[B-](F)(F)F` [7-(azetidin-1-yl)-4-((E)-2-((E)-3-(2-((E)-7-(azetidin-1-yl)-2-phenyl-4H-chromen-4-ylidene)ethylidene)-2-chlorocyclohex-1-en-1-yl)vinyl)-2-phenylchromenylium tetrafluoroborate]: the “Emission (CH2Cl2)” value in data set [1] is 1059 nm. Moreover, in data set [3], the “absorption (DCM) ε” value is reported as 2.07±0.01×10^5 M^−1cm^−1 and the “absorption (DCM) λmax” value worked out at 1029 nm.
For the compound `CN(C)c1ccc2c(c1)OC(c1ccccc1)=C\C2=C/C=C/C=C/c1cc(-c2ccccc2)[o+]c2cc(N(C)C)ccc12.[O-][Cl+3]([O-])([O-])[O-]` [Dye 4], in data set [1], the “Stoke's shift” value is reported as 46 nm and the “emission (DCM) λmax” value is on record as 908 nm. The “QE, εΦF (quantum efficiency)” value in data set [2] was found to be 10000 M⁻¹ cm⁻¹. In data set [2] (listed as Flav5), the “QE, εΦF (quantum efficiency)” value is reported as 10^3 M^−1cm^−1. Further, in data set [3], the “absorption (DCM) λmax” value was 862 nm. In addition, in data set [4], the “relative rate, krel (photobleaching)” value was 4.0 ± 0.2; the “raw rate, k (photobleaching)” value is 2.6 ± 0.2 s^−1 × 10^−3; the “ε at 532 nm” value stood at 1.29 ± 0.08 M^−1cm^−1 × 10^4. Also, the “photostability (in words)” value in data set [4] (532 nm laser, listed as Flav5) is “extremely high photostabilities; also recorded: excellent photostabilities”.
Regarding `CN(C)c1ccc2c(c1)OC(c1ccccc1)=C/C2=C\C=C\c1cc(-c2ccccc2)[o+]c2cc(N(C)C)ccc12.[O-][Cl+3]([O-])([O-])[O-]` [Dye 5, 7-(dimethylamino)-4-((E)-3-((E)-7-(dimethylamino)-2-phenyl-4H-chromen-4-ylidene)prop-1-en-1-yl)-2-phenylchromenylium perchlorate], the “emission (DCM) λmax” value in data set [1] is 766 nm. In data set [2], the “QE, εΦF (quantum efficiency)” value amounted to 6600 M⁻¹ cm⁻¹; the “ΦF (fluorescence quantum yield)” value is 2.9±0.5% and 2.9%. Besides, in data set [3] (listed as Flav3), the “absorption (DCM) ε” value is on record as ~220,000 M^−1cm^−1 and the “absorption (DCM) λmax” value was around 745 nm. Also, the “absorption (DCM) λmax” value in data set [3] is reported as 746 nm. Moreover, in data set [4], the “relative rate, krel (photobleaching)” value was 1.00 ± .06; the “raw rate, k (photobleaching)” value was determined as 1.00 ± 0.06 s^−1 × 10^−3; the “ε at 532 nm” value was 2.0 ± 0.1 M^−1cm^−1 × 10^4. In addition, the “photostability relative to HITCI” value in data set [4] (532 nm laser) was determined as 4 fold. The “photostability (in words)” value in data set [4] (532 nm laser, listed as Flav3) is given as “extremely high photostabilities; also recorded: excellent photostabilities”.
